We go through three compounds from BindingDB's records for patent US20230159469 (Txinno Bioscience, 2023).

The assay has as its target T1, Ectonucleotide pyrophosphatase/phosphodiesterase family member 1 (Homo sapiens, UniProt P22413).
T1 sequence (P22413 whole entry): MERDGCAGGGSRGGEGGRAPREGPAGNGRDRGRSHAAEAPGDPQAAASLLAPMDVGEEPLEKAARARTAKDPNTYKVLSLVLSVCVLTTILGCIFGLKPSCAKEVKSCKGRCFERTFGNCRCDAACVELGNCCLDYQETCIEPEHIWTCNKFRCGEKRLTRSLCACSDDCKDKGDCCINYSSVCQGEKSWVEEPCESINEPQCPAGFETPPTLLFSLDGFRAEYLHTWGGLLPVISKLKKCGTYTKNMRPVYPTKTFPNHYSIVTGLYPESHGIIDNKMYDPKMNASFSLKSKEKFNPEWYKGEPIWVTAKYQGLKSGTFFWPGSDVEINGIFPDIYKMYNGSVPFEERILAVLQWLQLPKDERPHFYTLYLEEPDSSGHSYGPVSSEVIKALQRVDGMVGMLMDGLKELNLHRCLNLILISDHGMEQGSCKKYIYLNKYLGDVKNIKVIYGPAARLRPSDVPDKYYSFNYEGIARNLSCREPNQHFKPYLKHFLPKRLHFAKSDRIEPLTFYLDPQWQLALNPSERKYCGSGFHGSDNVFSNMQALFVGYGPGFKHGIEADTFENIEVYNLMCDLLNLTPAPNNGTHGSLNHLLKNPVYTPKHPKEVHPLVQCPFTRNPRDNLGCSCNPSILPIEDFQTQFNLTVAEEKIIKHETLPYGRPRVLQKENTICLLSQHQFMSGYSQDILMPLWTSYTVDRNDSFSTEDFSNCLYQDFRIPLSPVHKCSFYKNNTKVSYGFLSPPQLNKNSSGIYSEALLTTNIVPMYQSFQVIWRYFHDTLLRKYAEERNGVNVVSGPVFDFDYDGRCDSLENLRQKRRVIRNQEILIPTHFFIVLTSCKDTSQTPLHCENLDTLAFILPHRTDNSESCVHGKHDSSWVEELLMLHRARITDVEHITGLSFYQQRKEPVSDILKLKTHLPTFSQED
Put plainly: ENPP1 Enzyme Assay with eGAMP Substrate. The procedure: ENPP1 hydrolyzes nucleotides or nucleotide derivatives to produce nucleoside -5′-monophosphate and pyrophosphate. in addition, ENPP1 hydrolyzes 2′,3′-cGAMP to produce 5′-adenosine monophosphate (AMP) and 5′-guanosine monophosphate (GMP). AMP produced from the reaction is measured using the AMP-Glo kit (Promega). The AMP-Glo kit contains two reagents. The first reagent terminates the AMP-producing enzymatic reaction, removes ATP and converts the produced AMP into ADP. The second reagent converts ADP to ATP which is used to generate luminescence in the luciferase reaction. […] CaCl2, 1 μM ZnCl2, 5% glycerol and 1% DMSO. […] The reaction was initiated by addition of cGAMP (at a final concentration of 5 μM) and reacted at 37 C. for 90 minutes. At the end of the reaction, 10 μl of the AMP-Glo first reagent was added to stop the reaction and the result was stored at room temperature for […]. After storage, 20 μl of an AMP detection solution (a mixture of AMP-Glo II reagent and Kinase-Gio at a ratio of 1:100) was added and stored at room. temperature for 1 hour. Luminescence signals were measured using a Victor plate reader (Perkin Elmer). The maximal activity control (containing enzymes and substrates only in the presence of 1% DMSO; MAX) and the minimal activity control (containing substrates and 1% DMSO; MIN) were evaluated simultaneously. In each experiment, serially diluted reference ENPP1 inhibitors were tested together. IC50, indicating % residual activity versus compound concentration was determined by fitting inhibition curves using the 3-parameter analysis of GraphPad Prism software. Serially diluted samples of one compound were tested two or more times and an average IC50 of each compound was calculated.

For the compound `COc1cc2c(-c3ccc(CNS(=N)(=O)O)cc3)nn(C)c(=O)c2cc1OC` [US20230159469, Example 108], the 50% inhibitory concentration (IC50) was no less than 1 µM. The compound `NS(=O)(=O)Nc1cccc(-c2n[nH]c(=O)c3ccccc23)c1` [US20230159469, Example 87] gave an IC50 of less than 1 µM. `N=S(=O)(O)NCc1ccc(-c2n[nH]c(=O)c3ccccc23)cc1` [US20230159469, Example 96]: the IC50 was less than 1 µM.
